From PMC10794144, “A novel antibiotic class targeting the lipopolysaccharide transporter” (Nature, 2024)
Where two headings read alike, the source gives them in different places.

What was measured:
Assay in all cases: Off-target screening (CEREP)
Type in all cases: binding
Settings in all cases: read-out: percent inhibition
[1] = target: T1, Alpha2A-adrenoreceptor (Homo sapiens, UniProt P08913)
T1 construct: purchased Eurofins CEREP SA
T1 sequence (P08913 1-465): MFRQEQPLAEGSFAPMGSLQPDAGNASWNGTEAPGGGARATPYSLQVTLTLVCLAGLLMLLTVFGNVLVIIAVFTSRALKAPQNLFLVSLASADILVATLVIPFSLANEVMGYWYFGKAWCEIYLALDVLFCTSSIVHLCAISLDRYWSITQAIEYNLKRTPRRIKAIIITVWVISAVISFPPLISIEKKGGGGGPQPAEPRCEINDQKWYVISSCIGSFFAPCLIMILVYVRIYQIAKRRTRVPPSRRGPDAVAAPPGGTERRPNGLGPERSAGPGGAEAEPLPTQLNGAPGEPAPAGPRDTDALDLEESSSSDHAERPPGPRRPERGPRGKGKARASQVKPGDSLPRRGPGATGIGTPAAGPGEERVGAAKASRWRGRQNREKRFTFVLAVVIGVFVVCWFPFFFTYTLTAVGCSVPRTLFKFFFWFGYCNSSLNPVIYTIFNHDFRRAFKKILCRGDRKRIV
Description: (§1) Supplementary Table 1 │ Off-target activity screening f or MCP compou nds […]
(§2) The assays given in the table above were conducted at Eurofins CEREP S A (Celle-Lévescault, France) and were run as single point measurements in duplicates in the presence of 10 µ M of the test compound and reported as percent inhibition of the radioligand signal or control enzymatic activity. n.d., not

[2] = target: T2, Beta1-adrenoreceptor (Homo sapiens, UniProt P08588)
T2 construct: purchased Eurofins CEREP SA
Description: as §1, §2

[3] = target: T3, Cholecystokinin 1 receptor (Homo sapiens, UniProt P32238)
T3 construct: purchased Eurofins CEREP SA
T3 sequence (P32238 1-428): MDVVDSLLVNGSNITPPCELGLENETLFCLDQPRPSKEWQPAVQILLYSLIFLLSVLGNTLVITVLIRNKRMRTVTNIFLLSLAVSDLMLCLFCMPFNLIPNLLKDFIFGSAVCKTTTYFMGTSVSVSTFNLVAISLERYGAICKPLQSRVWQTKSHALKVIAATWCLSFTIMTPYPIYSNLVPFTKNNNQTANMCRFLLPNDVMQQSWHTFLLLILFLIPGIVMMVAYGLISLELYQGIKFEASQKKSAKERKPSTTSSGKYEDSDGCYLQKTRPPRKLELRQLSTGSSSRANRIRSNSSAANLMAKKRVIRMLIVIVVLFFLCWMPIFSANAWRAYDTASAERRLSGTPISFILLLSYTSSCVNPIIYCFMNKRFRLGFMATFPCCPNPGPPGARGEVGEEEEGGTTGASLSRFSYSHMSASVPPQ
Description: as §1, §2

[4] = target: T4, Glucocorticoid receptor (Homo sapiens, UniProt P04150)
T4 construct: purchased Eurofins CEREP SA
T4 sequence (P04150 1-777): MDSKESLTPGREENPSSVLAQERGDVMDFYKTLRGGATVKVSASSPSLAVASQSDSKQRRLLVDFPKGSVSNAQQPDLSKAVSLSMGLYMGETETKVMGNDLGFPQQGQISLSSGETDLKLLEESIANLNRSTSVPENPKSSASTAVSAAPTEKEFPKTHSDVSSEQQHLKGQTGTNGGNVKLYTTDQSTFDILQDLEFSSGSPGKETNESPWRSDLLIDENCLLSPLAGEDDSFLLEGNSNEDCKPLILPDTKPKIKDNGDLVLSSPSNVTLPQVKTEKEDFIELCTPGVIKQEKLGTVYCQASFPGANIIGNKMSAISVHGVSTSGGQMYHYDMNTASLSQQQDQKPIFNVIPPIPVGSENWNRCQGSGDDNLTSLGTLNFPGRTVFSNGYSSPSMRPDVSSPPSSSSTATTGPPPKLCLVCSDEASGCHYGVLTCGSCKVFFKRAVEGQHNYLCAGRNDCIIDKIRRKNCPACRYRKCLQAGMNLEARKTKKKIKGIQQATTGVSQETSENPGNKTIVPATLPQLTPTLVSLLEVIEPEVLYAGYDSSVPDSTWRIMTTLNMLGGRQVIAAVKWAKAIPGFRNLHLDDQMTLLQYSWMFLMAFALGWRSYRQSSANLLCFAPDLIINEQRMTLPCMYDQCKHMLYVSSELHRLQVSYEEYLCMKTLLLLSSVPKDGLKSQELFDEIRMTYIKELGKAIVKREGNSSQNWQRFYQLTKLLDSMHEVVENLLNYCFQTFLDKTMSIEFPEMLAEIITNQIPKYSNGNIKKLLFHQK
Description: as §1, §2

[5] = target: Glycine receptor, strychnine insensitive (Rattus norvegicus, UniProt P35439)
Description: as §1, §2

[6] = target: T5, Kappa opioid receptor (Homo sapiens, UniProt P41145)
T5 construct: purchased Eurofins CEREP SA
Description: as §1, §2

[7] = target: T6, Mu opioid receptor (Homo sapiens, UniProt P35372)
T6 construct: purchased Eurofins CEREP SA
Description: as §1, §2

[8] = target: T7, Norepinephrine transporter (Homo sapiens, UniProt P23975)
T7 construct: purchased Eurofins CEREP SA
Description: as §1, §2

[9] = target: T8, PPAR gamma (Homo sapiens, UniProt P37231)
T8 construct: purchased Eurofins CEREP SA
T8 sequence (P37231 1-505): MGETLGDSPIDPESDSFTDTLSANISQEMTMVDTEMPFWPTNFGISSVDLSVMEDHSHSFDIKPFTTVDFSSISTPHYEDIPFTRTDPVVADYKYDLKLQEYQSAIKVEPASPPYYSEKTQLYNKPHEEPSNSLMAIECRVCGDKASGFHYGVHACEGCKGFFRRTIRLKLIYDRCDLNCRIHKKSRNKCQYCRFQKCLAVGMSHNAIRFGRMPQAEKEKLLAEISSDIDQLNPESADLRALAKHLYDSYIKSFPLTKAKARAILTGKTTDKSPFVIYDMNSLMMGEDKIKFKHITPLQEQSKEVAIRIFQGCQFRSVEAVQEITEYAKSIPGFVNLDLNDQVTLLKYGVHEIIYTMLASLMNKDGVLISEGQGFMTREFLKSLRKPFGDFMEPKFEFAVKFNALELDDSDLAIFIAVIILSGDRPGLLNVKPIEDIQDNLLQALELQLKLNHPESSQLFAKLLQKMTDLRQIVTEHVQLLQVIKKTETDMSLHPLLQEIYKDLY
Description: as §1, §2

[10] = target: T9, Prostaglandin F receptor (Homo sapiens, UniProt P43088)
T9 construct: purchased Eurofins CEREP SA
Description: as §1, §2

Chain of Glycine receptor, strychnine insensitive (P35439 394-800): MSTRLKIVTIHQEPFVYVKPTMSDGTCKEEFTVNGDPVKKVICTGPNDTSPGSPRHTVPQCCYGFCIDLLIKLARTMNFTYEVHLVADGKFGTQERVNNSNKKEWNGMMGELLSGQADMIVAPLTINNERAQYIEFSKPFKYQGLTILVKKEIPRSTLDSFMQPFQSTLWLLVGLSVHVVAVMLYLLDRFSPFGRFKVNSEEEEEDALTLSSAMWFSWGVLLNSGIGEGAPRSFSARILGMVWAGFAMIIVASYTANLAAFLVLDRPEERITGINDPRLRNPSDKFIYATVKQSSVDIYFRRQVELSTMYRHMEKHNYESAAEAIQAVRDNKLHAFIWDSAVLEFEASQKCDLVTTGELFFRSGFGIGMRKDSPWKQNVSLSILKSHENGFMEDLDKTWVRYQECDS
T9 sequence (P43088 whole entry): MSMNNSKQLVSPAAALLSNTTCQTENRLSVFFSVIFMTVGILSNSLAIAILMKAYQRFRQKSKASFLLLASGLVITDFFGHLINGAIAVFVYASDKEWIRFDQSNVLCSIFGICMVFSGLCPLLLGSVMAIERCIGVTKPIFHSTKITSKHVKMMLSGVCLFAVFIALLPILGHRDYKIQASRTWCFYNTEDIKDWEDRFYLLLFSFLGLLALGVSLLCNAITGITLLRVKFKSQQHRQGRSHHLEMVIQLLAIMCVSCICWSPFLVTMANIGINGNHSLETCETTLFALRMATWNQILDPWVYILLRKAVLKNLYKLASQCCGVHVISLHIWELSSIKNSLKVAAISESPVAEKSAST
T7 sequence (P23975 whole entry): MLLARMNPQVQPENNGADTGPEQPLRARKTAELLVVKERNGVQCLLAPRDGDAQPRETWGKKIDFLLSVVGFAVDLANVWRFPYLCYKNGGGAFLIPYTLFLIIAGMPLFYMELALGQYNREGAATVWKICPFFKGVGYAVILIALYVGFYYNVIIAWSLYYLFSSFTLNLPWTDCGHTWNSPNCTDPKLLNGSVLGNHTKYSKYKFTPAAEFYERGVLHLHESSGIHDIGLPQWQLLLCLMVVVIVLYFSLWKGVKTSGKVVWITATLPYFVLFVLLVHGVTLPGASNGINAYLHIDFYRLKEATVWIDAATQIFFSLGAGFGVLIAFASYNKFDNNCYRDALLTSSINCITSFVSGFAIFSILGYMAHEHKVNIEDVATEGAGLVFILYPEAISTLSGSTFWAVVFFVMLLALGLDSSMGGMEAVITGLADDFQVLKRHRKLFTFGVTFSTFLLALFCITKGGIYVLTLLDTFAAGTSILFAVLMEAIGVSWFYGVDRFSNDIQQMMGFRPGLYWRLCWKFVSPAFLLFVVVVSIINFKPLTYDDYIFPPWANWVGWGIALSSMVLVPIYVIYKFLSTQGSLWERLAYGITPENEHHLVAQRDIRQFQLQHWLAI
T6 sequence (P35372 whole entry): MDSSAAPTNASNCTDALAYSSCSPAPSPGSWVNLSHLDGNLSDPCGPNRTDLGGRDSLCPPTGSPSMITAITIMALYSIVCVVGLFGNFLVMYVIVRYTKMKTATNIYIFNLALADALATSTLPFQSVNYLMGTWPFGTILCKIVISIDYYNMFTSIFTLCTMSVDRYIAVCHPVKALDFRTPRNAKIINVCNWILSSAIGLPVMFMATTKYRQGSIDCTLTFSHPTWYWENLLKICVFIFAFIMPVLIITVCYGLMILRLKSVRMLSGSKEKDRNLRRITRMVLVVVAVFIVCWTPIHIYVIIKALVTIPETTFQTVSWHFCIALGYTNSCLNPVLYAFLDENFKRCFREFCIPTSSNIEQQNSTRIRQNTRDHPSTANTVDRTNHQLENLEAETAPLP
T5 sequence (P41145 whole entry): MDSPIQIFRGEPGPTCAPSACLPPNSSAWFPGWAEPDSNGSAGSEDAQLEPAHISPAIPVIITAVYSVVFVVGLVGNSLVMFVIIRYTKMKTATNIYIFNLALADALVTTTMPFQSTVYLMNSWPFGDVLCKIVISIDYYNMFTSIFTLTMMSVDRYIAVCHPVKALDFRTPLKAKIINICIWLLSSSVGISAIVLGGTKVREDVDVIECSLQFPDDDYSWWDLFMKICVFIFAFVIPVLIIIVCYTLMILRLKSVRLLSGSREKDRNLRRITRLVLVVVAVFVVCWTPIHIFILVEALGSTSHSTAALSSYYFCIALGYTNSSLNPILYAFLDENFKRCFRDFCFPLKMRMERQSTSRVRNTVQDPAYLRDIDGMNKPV
T2 sequence (P08588 whole entry): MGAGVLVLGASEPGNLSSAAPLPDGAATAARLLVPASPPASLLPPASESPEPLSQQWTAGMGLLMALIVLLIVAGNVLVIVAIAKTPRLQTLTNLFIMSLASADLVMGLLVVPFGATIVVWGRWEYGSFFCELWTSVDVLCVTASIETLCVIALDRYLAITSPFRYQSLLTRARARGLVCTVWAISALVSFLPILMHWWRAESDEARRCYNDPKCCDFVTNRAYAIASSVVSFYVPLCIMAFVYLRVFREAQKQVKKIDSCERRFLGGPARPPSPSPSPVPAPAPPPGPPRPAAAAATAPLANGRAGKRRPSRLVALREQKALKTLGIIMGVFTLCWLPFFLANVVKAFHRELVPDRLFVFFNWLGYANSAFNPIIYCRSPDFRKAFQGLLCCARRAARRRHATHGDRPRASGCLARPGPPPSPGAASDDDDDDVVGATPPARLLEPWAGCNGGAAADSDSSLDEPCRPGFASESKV

In the case of CN1C(=O)[C@H](CCCN)NC(=O)[C@H](CCCN)NCc2ccccc2Sc2ccccc2CNC(=O)[C@@H]1Cc1c[nH]c2ccccc12 [RO7036668], the inhibition at 10 µM ([1]; 10 µM, duplicates) was -2%, the inhibition at 10 µM ([2]; 10 µM, duplicates) was 12% and the inhibition at 10 µM ([3]; 10 µM, duplicates) was 22%. For the same compound, the inhibition at 10 µM ([4]; 10 µM, duplicates) was 3%, the inhibition at 10 µM [5] was -27% and the inhibition at 10 µM ([6]; 10 µM, duplicates) was 69%. For the same compound, the inhibition at 10 µM ([7]; 10 µM, duplicates) was 63%, the inhibition at 10 µM ([8]; 10 µM, duplicates) was 43% and the inhibition at 10 µM ([9]; 10 µM, duplicates) was -1%. It also gave an inhibition at 10 µM ([10]; 10 µM, duplicates) of 2%.
For CN1C(=O)[C@H](CCCCN)NC(=O)[C@H](CCCN)NCc2cccnc2Sc2c(Cl)ccc(Cl)c2CNC(=O)[C@@H]1Cc1c[nH]c2ccccc12 [RO7075573], the inhibition at 10 µM [1] was -5%, the inhibition at 10 µM [2] was -2% and the inhibition at 10 µM [3] was 32%. It also gave an inhibition at 10 µM [4] of 9%, an inhibition at 10 µM [5] of -29% and an inhibition at 10 µM [6] of 26%. For the same compound, the inhibition at 10 µM [7] was 21%, the inhibition at 10 µM [8] was 1% and the inhibition at 10 µM [9] was -16%. It also gave an inhibition at 10 µM [10] of -4%.
Compound CN1C(=O)[C@H](CCCCN)NC(=O)[C@H](CCCN)NCc2cccnc2Sc2c(Cl)ccc(-c3ccc(C(=O)O)cc3)c2CNC(=O)[C@@H]1Cc1c[nH]c2ccccc12 [RO7202110] has an inhibition at 10 µM ([1]; 10 µM, duplicates) of -2%, an inhibition at 10 µM ([2]; 10 µM, duplicates) of -2% and an inhibition at 10 µM ([3]; 10 µM, duplicates) of 0%. It also gave an inhibition at 10 µM ([4]; 10 µM, duplicates) of 9%, an inhibition at 10 µM [5] of -25% and an inhibition at 10 µM ([6]; 10 µM, duplicates) of 32%. For the same compound, the inhibition at 10 µM ([7]; 10 µM, duplicates) was 26%, the inhibition at 10 µM ([8]; 10 µM, duplicates) was 14% and the inhibition at 10 µM ([9]; 10 µM, duplicates) was -8%. It also gave an inhibition at 10 µM ([10]; 10 µM, duplicates) of -3%.
Work on CN1C(=O)[C@H](CCCCN)NC(=O)[C@H](CCCN)NCc2cccnc2Sc2cccc(-c3ccc(C(=O)O)cc3)c2CNC(=O)[C@@H]1Cc1c[nH]c2ccccc12 [zosurabalpin] yielded an inhibition at 10 µM [1] of 4%, an inhibition at 10 µM [2] of 10% and an inhibition at 10 µM [3] of -1%. It also gave an inhibition at 10 µM [4] of -1%, an inhibition at 10 µM [5] of 15% and an inhibition at 10 µM [6] of 9%. It also gave an inhibition at 10 µM [7] of 4%, an inhibition at 10 µM [8] of 12% and an inhibition at 10 µM [9] of -4%. For the same compound, the inhibition at 10 µM [10] was 5%.
